Source: ChEMBL document CHEMBL1201862, “PubChem BioAssay data set” (2004)
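How tested: cells in 96-well plates exposed to compound for 48 hours at five concentrations. GI50 = concentration required for 50% inhibition of growth.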 The source made the active and inactive calls. No stated cut-off is given here; in the data, active = GI50 up to about 1.1 µM and inactive = higher.

Columns and labels:
Assay in all cases: DTP human tumour cell line panel, 48 h
[1] = tested on: 786-0
[2] = tested on: A549
[3] = tested on: ACHN
[4] = tested on: CAKI-1
[5] = tested on: HOP-62
[6] = tested on: K562
[7] = tested on: MCF7
[8] = tested on: NCI-H23
[9] = tested on: NCI-H460
[10] = tested on: NCI/ADR-RES
[11] = tested on: OVCAR-4
[12] = tested on: OVCAR-5
[13] = tested on: RPMI-8226
[14] = tested on: RXF 393
[15] = tested on: SF-268
[16] = tested on: SK-MEL-28
[17] = tested on: SK-MEL-2
[18] = tested on: SK-MEL-5
[19] = tested on: SK-OV-3
[20] = tested on: SNB-75
[21] = tested on: SR
[22] = tested on: SW-620
[23] = tested on: T47D
[24] = tested on: U-251
[25] = tested on: CCRF-CEM
[26] = tested on: COLO 205
[27] = tested on: DU-145
[28] = tested on: EKVX
[29] = tested on: HCC 2998
[30] = tested on: HCT-15
[31] = tested on: HL-60
[32] = tested on: HT-29
[33] = tested on: IGROV-1
[34] = tested on: KM12
[35] = tested on: M14
[36] = tested on: MDA-MB-231
[37] = tested on: MDA-N
[38] = tested on: MOLT-4
[39] = tested on: Malme-3M
[40] = tested on: OVCAR-8
[41] = tested on: PC-3
[42] = tested on: SF-295
[43] = tested on: SN12C
[44] = tested on: TK-10
[45] = tested on: UACC-257
[46] = tested on: UACC-62
[47] = tested on: HCT-116
[48] = tested on: HOP-92
[49] = tested on: LOX IMVI
[50] = tested on: NCI-H226
[51] = tested on: OVCAR-3
[52] = tested on: SF-539
[53] = tested on: SNB-19
[54] = tested on: A498
[55] = tested on: Hs-578T
[56] = tested on: NCI-H522

Measured: GI50

O=CC(O)C(O)C(O)C(O)COP(=O)(O)Cc1ccccc1 (stereo not given)
inactive: [1] > 10 µM | [2] > 10 µM | [3] > 10 µM | [4] > 10 µM | [5] > 10 µM | [6] > 10 µM | [7] > 10 µM | [8] > 10 µM | [9] > 10 µM | [10] > 10 µM | [11] > 10 µM | [12] > 10 µM | [13] > 10 µM | [14] > 10 µM | [15] > 10 µM | [16] > 10 µM | [17] > 10 µM | [18] > 10 µM | [19] > 10 µM | [20] > 10 µM | [21] > 10 µM | [22] > 10 µM | [23] > 10 µM | [24] > 10 µM

CCC1(c2ccccc2)Sc2ccccc2-n2cccc2C1=O (stereo not given)
inactive: [1] > 10 µM | [2] > 10 µM | [4] > 10 µM | [25] > 10 µM | [26] > 10 µM | [27] > 10 µM | [28] > 10 µM | [29] > 10 µM | [31] 4.12 µM | [5] > 10 µM | [32] 9.62 µM | [33] > 10 µM | [6] 4.6 µM | [34] 7.8 µM | [35] > 10 µM | [7] > 10 µM | [36] 9.31 µM | [37] 3.5 µM | [38] 5.37 µM | [39] 8.34 µM | [8] > 10 µM | [40] > 10 µM | [41] 8.53 µM | [13] 4.32 µM | [14] 9.79 µM | [42] > 10 µM | [16] > 10 µM | [18] > 10 µM | [19] > 10 µM | [43] > 10 µM | [20] > 10 µM | [21] 3.79 µM | [22] > 10 µM | [23] > 10 µM | [44] > 10 µM | [45] > 10 µM | [46] > 10 µM
8.79 µM: [30]

CN(NC(=O)CC(=O)NN(C)C(=S)c1ccccc1)C(=S)c1ccccc1 [ELESCLOMOL]
inactive: [28] 33.9 µM | [29] 64.7 µM | [47] 62.1 µM | [48] > 100 µM | [33] > 100 µM | [49] 35.4 µM | [37] > 100 µM | [50] 83.8 µM | [51] > 100 µM | [12] > 100 µM | [42] 46 µM | [52] > 100 µM | [19] > 100 µM | [53] 84.7 µM | [21] 28.3 µM | [22] 67 µM | [44] > 100 µM | [46] 50.2 µM
active: [32] < 0.01 µM | [13] < 0.01 µM

COc1ccc2cc1Oc1ccc(cc1)C[C@@H]1c3cc(c(OC)cc3CCN1C)Oc1c(OC)c(OC)cc3c1[C@H](C2)N(C)CC3 [ISOTETRANDRINE]
inactive: [1] 24.7 µM | [54] 19.7 µM | [3] 13.4 µM | [25] 16.9 µM | [29] 12.7 µM | [47] 17.7 µM | [31] 10.8 µM | [48] > 10 µM | [55] 16.7 µM | [33] 20.7 µM | [6] 4.16 µM | [35] 11.1 µM | [7] 14 µM | [36] 14.7 µM | [8] 15.8 µM | [9] 15.2 µM | [56] 12.6 µM | [51] 18.2 µM | [11] 17.9 µM | [40] 17.9 µM | [14] 1.44 µM | [15] 21.7 µM | [42] 16.3 µM | [52] 8.89 µM | [18] 11.8 µM | [19] 40.2 µM | [53] 20.4 µM | [20] 12.4 µM | [21] 2.41 µM | [44] 19.1 µM | [24] 22.2 µM | [45] 11.3 µM
11.2 µM: [30]
